Test results reported in article PMC8164609 (Environmental Science and Pollution Research International, 2021).
Several values for one entry are separate records, joined by “and”; a condition that tells them apart may be missing. Equal values may be shown once. Read-outs that look alike come from different tables or passages of the source.

Legend:
MCF-7 cells [1] = assay: LDH cytotoxicity test; details: 24 h, up to 10^−4 M
Description: Cytotoxicity was assessed by lactate dehydrogenase (LDH) release. For LDH measurement, Pierce LDH Cytotoxicity Assay Kit (Thermo Scientific, Rockford, USA) was used. MCF-7 cells were seeded at 2.8×10^5 in a transparent 96-well plate, and corner cells of the plate were filled with PBS to prevent the edge effect. SF medium containing DMEM without phenol red, 1% charcoal-stripped FBS, and 4 mM L-glutamine were used for this assay. Plates were incubated for 24 h, and then the cells were treated with test compounds at concentrations ranging from 10^−14 to 10^−4 M or vehicle for another 24 h. On day 3, culture supernatant was collected in a separate 96-well plate, and the assay was continued according to the manufacturer’s instructions. Final absorbance was measured with the microplate reader at 490 and 680 nm. […] Vehicle control was 0.1% EtOH or DMSO. All the exposures were in triplicate, and the experiment was carried out twice.

MCF-7 cells [2] = test system: MCF-7 cells; set-up: method as in Blanquer-Rosselló et al. [2013]; details: 0.001–20 μM, ref Blanquer-Rosselló et al. [2013]; cited from earlier work
MCF-7 cells [3] = assay: MCF-7 cell proliferation assay (MTT reduction); format: cell-based, human; details: MCF-7 cells, MTT; for EC50: Homo sapiens, MCF7, hormone-depleted medium, read-out: EC50 (proliferative effect)
Description: MCF-7 cell line which is sensitive to estrogen (ERα^+) was kindly provided by Dr. Sari Tojkander (Department of Veterinary Biosciences, Faculty of Veterinary Medicine, University of Helsinki). Cells were usually grown in T25 or T75 flasks containing DMEM with or without phenol red and supplemented with 7–10% FBS and 4 mM L-glutamine at 37°C in 5% CO2/95% humidified atmosphere. In order to eliminate the disturbing effect of hormones usually present in FBS, cell culture medium supplemented with commercially available charcoal-stripped FBS and 4 mM L-glutamine (SF medium) was used for experiments.
The effect of EEDCs on the proliferation of MCF-7 cells was assessed as previously described by measuring the capacity of the cells in each well to reduce MTT reagent (Van Meeuwen et al. [2007]). Approximately 5000 cells/200 μL of SF medium containing DMEM without phenol red, 5% charcoal-stripped FBS, and 4 mM L-glutamine were seeded per well in a 96-well cell culture plate. On day 2, cells were treated with the SF medium containing test compounds or vehicle. The final concentration of the solvents DMSO and EtOH was lower than 0.1%. On day 5, the SF medium containing test compounds or vehicle were refreshed. On day 8, cells were washed with PBS twice and then incubated with the SF medium containing 1 mg/mL MTT reagent for 1 h. The ability of MCF-7 cells to reduce MTT was measured at the reference wavelength of 595 nm using a microplate reader (Multiskan Ascent, Thermo Fisher Scientific). All the exposures were in triplicate.
The dose-response curves of test samples were plotted against logarithmic-transformed concentrations.

MCF-7 cells [4] = assay: In vitro micronucleus assay for cytokinesis block; format: cell-based, human; details: 24 h; for Micronuclei per 1000 binucleated cells, Replicates: single replicate values
Description: The genotoxicity of EEDCs to MCF-7 cells was assessed by the in vitro micronucleus assay for cytokinesis block. MCF-7 cells were seeded at a density of 5×10^4/well in a 12-well plate in SF medium containing DMEM, 7% charcoal-stripped FBS and 4 mM L-glutamine. These cells were treated with test compounds or the positive control for 24 h. Then, cells were washed twice with PBS, treated with 2 μg/mL cytochalasin B, and incubated for 1.5–2 normal cell cycle lengths (~24 h for MCF-7 cells). Finally, cells were washed with PBS and fixed with 4% paraformaldehyde for 10–15 min (in PBS, pH 6.9). Before staining cells with 5% Giemsa stain for 20 min, plates were washed again with PBS and dried. The frequency of micronuclei per 1000 binucleated cells was counted for each well, and the ratio of micronucleus frequency in treated vs. control cells was defined as fold induction. Cells in mitosis were omitted.

S. cerevisiae BMA64/luc = details: values higher than 2 are considered toxic
Description: Yeast bioluminescent assay was performed as previously described (Omoruyi and Pohjanvirta [2018]). Two recombinant yeasts, Saccharomyces cerevisiae BMAEREluc/ERα and Saccharomyces cerevisiae BMA64/luc, were kindly provided by Dr. Johanna Rajasärkkä, Department of Food and Environmental Sciences, Faculty of Agriculture and Forestry, University of Helsinki. In the BMAEREluc/ERα, human ERα is expressed. After estrogen-like chemicals bind to ERα, the dimerized receptor binds to a specific DNA sequence called estrogen response element (ERE), in the promotor region of the luc reporter gene, inducing its expression. In BMA64/luc, the luciferase is expressed constitutively, and this strain can be used for the evaluation of cytotoxicity of test compounds.
Both strains were revived from glycerol stock solution on agar and broth forms of synthetic complete medium supplemented with the required amino acids. After the absence of contamination was confirmed by observing single colonies’ morphology on agar plate, approximately 10 μL of cultured yeasts in broth was transferred to 4 mL of synthetic defined (SD) medium supplemented with the required amino acids. The culture was incubated at 30°C on a shaker incubator (200 rpm). After 24-h incubation, the culture was diluted with SD broth to reach the optimal density (OD600) of 0.4 CFU/mL. Subsequently, the culture was incubated in the same incubation condition until the OD600 reached 0.6–0.7 CFU/mL.
Next, 90 μL of cultured yeasts containing 1:20 luciferin solution (0.042 g luciferin dissolved in 9.75 mL of 0.2 M trisodium citrate, and 5.525 mL of 0.2 M citrate, pH 5) was pipetted into every well of a white 96-well flat-bottom plate, and 10 μL of test compounds in a defined concentration range (diluted in 5% EtOH) were added. The plate was incubated at 30°C for approximately 2.5 h, and was then shaken briefly. The luminescence measurement was performed with Luminoskan Ascent microplate luminometer (Thermo Labsystems) using the recommended settings as follows: 1000 ms integration time, single measurement mode, shaking at 60 rpm for 5 s prior to measurement.
Each concentration of test compounds and controls in the assay was tested in triplicate, and the experiment was performed twice.
* The Correction Factor is the luminescence of the strain BMA64/luc with blank solvent divided by the luminescence of the control strain with the sample. Values higher than 2 are considered toxic (Leskinen et al. 2005).
* The Correction Factor is the luminescence of the strain BMA64/luc with blank solvent divided by the luminescence of the control strain with the sample. Values higher than 2 are considered toxic (Leskinen et al. 2005). […] Each experiment was performed in triplicate.

MCF-7 cells [5] = test system: MCF-7 cells; set-up: method as in Lei et al. [2017]; details: 10^−4 M, 24-h incubation, LDH leakage; ref Lei et al. [2017]; cited from earlier work

Structure (SMILES) | maximum level of cytotoxicity (LDH release) (MCF-7 cells [1]) | EC50 (MCF-7 cells [3]) [nM] | Micronuclei per 1000 binucleated cells, Average (MCF-7 cells [4]; 10^−7 M) | Micronuclei per 1000 binucleated cells, Replicates (MCF-7 cells [4]; 10^−7 M) | Micronuclei per 1000 binucleated cells, Average (MCF-7 cells [4]; 10^−8 M) | Micronuclei per 1000 binucleated cells, Replicates (MCF-7 cells [4]; 10^−8 M) | Correction Factor (S. cerevisiae BMA64/luc; 5% DMSO, 10^−4 M) | Correction Factor (S. cerevisiae BMA64/luc; 5% DMSO, 10^−6 M) | Correction Factor (S. cerevisiae BMA64/luc; 5% DMSO, 10^−8 M) | Correction Factor (S. cerevisiae BMA64/luc; 5% DMSO, 10^−10 M) | Correction Factor (S. cerevisiae BMA64/luc; 5% DMSO, 10^−12 M) | Correction Factor (S. cerevisiae BMA64/luc; 5% DMSO, 10^−14 M) | Correction Factor (S. cerevisiae BMA64/luc; 5% ethanol, 10^−4 M) | Correction Factor (S. cerevisiae BMA64/luc; 5% ethanol, 10^−6 M) | Correction Factor (S. cerevisiae BMA64/luc; 5% ethanol, 10^−8 M) | other results
CC(C)=CCc1c(O)cc(O)c2c1O[C@H](c1ccc(O)cc1)CC2=O [8-PN, 8-prenylnaringenine] | less than 2.5% | 4.98 | 22.33 per 1000 binucleated cells | 24 per 1000 binucleated cells and 20 per 1000 binucleated cells and 23 per 1000 binucleated cells | 18.67 per 1000 binucleated cells | 16 per 1000 binucleated cells and 19 per 1000 binucleated cells and 21 per 1000 binucleated cells | 3.27±0.64 | 3.31±0.92 | 2.62±0.30 | 2.02±0.15 | 2.32±0.56 | 2.09±0.35 | 1.05±0.21 | 0.94±0.14 | 0.97±0.04 | mitochondrial function and ROS production (MCF-7 cells [2]): improved mitochondrial function and decreased ROS production; efficacy (maximum induction of cell growth) compared with 17β-estradiol (MCF-7 cells [3]): about half; Correction Factor (S. cerevisiae BMA64/luc; 5% ethanol, 10^−10 M): 1.03±0.16; Correction Factor (S. cerevisiae BMA64/luc; 5% ethanol, 10^−12 M): 0.92±0.14; Correction Factor (S. cerevisiae BMA64/luc; 5% ethanol, 10^−14 M): 0.98±0.12
C[C@]12CC[C@@H]3c4ccc(O)cc4CC[C@H]3[C@@H]1CC[C@@H]2O [17β-estradiol] | less than 2.5% | 0.21 | 13.33 per 1000 binucleated cells | 10 per 1000 binucleated cells and 13 per 1000 binucleated cells and 17 per 1000 binucleated cells | 13 per 1000 binucleated cells | 12 per 1000 binucleated cells and 14 per 1000 binucleated cells and 13 per 1000 binucleated cells | 3.23±0.53 | 3.42±0.81 | 2.98±0.42 | 3.11±0.47 | 2.60±0.69 | 2.59±0.23 | 1.12±0.12 | 1.08±0.05 | 1.11±0.06 | 
CC(C)(c1ccc(O)cc1)c1ccc(O)cc1 [BPA, bisphenol A] |  |  |  |  |  |  |  |  |  |  |  |  |  |  |  | increase of MCF-7-cell mortality (MCF-7 cells [5]): more than 80%
